For 16 compounds, Activity and Kapp results are on record in ChEMBL document CHEMBL2010747, “Synthesis of [12]aneN3-dipeptide conjugates as metal-free DNA nucleases” (Bioorg Med Chem Lett, 2012).

Assay type in all cases: nucleic-acid assay
For assay [1], the system named is Nucleic Acid. The assay is described as follows: Induction of Escherichia coli pUC18 DNA cleavage assessed as formation of open circular DNA at 200 uM after 48 hrs by agarose gel electrophoresis.
For assay [2], the system named is Nucleic Acid. Put plainly: Induction of Escherichia coli pUC18 DNA cleavage assessed as formation of linear DNA at 50 to 500 uM after 48 hrs by agarose gel electrophoresis.
In assay [3] the test system is Nucleic Acid. The assay is described as follows: Induction of Escherichia coli pUC18 DNA cleavage assessed as formation of open circular DNA at 200 uM after 48 hrs by agarose gel electrophoresis in presence of […].
The test system of assay [4] is Nucleic Acid. Put plainly: Induction of Escherichia coli pUC18 DNA cleavage assessed as formation of linear DNA at 200 uM after 48 hrs by agarose gel electrophoresis.
Assay [5] has as its system Nucleic Acid. Put plainly: Induction of Escherichia coli pUC18 DNA cleavage assessed as formation of open circular DNA at 200 uM after 48 hrs by agarose gel electrophoresis in presence of hydroxyl radical scavenger DMSO.
The subject of assay [6] is Nucleic Acid. The assay is described as follows: Displacement of ethidium bromide from calf thymus DNA after 1 min by fluorimetry. To be noted: Bos taurus.
The test system of assay [7] is Nucleic Acid. The assay is described as follows: Induction of Escherichia coli pUC18 DNA cleavage assessed as formation of open circular DNA at 200 uM after 48 hrs by agarose gel electrophoresis in presence of singlet oxygen radical scavenger NaN3.
Assay [8] concerns Nucleic Acid. The assay is described as follows: Induction of Escherichia coli pUC18 DNA cleavage assessed as formation of open circular DNA at 200 uM from 6 to 48 hrs by agarose gel electrophoresis.
For assay [9], the system named is Nucleic Acid. Put plainly: Induction of Escherichia coli pUC18 DNA cleavage assessed as formation of open circular DNA at 200 uM after 48 hrs by agarose gel electrophoresis in presence of EDTA.
Assay [10] concerns Nucleic Acid. Put plainly: Induction of Escherichia coli pUC18 DNA cleavage assessed as formation of open circular DNA at 200 uM after 48 hrs by agarose gel electrophoresis in presence of hydroxyl radical scavenger t-BuOH.

Active and inactive are the calls of the source. The rule behind the calls is not given here. Peptide text beside a SMILES is read from it. * marks the point of attachment. Fmoc = O=C(OCC1c2ccccc2-c2ccccc21)*

For `COC(=O)[C@H](C)NC(=O)[C@@H](N)CC(C)C` (H-Leu-Ala-OMe), the result in the assay with Nucleic Acid [1] was inactive.

Regarding `COC(=O)CNC(=O)[C@@H](N)CC(C)C` (H-Leu-Gly-OMe), in the assay on Nucleic Acid [1], the result was inactive.

For the compound `COC(=O)[C@H](CO)NC(=O)[C@@H](N)CC(C)C` (H-Leu-Ser-OMe), in the assay on Nucleic Acid [1], the result was inactive.

Turning to `COC(=O)[C@H](Cc1ccc(O)cc1)NC(=O)[C@@H](N)CC(C)C` (H-Leu-Tyr-OMe), in the assay on Nucleic Acid [1], the outcome was inactive.

For the compound `COC(=O)[C@H](C)NC(=O)[C@H](CC(C)C)NC(=O)CN1CCCNCCCNCCC1`, the outcome with Nucleic Acid [2], in the assay with Nucleic Acid [3], in the assay on Nucleic Acid [5], with Nucleic Acid [7], in the assay with Nucleic Acid [8] and in the assay with Nucleic Acid [9] was Active. Besides, the result in the assay with Nucleic Acid [10] was Active. Further, in the assay with Nucleic Acid [4], the result was inactive. Also, in the assay on Nucleic Acid [6], the Kapp was 5.9 ×10⁴ /M. In the assay on Nucleic Acid [1], the Activity came out at 50%.

Turning to `COC(=O)[C@H](Cc1ccccc1)NC(=O)[C@@H](N)CC(C)C` (H-Leu-Phe-OMe), the result in the assay on Nucleic Acid [1] was inactive.

For the compound `COC(=O)CNC(=O)CN`, the result in the assay with Nucleic Acid [1] was inactive.

`COC(=O)[C@H](Cc1c[nH]c2ccccc12)NC(=O)[C@H](CC(C)C)NC(=O)CN1CCCNCCCNCCC1` showed a Kapp in the assay with Nucleic Acid [6] of 4.7 ×10⁴ /M. The Activity with Nucleic Acid [1] was 50%.

`COC(=O)[C@H](Cc1ccccc1)NC(=O)[C@H](CC(C)C)NC(=O)CN1CCCNCCCNCCC1`: in the assay on Nucleic Acid [6], the Kapp turned out to be 6.6 ×10⁴ /M. The Activity in the assay with Nucleic Acid [1] came to 50%.

For the compound `COC(=O)[C@H](CO)NC(=O)[C@H](CC(C)C)NC(=O)CN1CCCNCCCNCCC1`, the Kapp in the assay on Nucleic Acid [6] came to 7.2 ×10⁴ /M. For the same compound, in the assay on Nucleic Acid [1], the Activity came to 50%.

As to `COC(=O)[C@H](CCCCN)NC(=O)[C@H](CC(C)C)NC(=O)CN1CCCNCCCNCCC1`, the outcome with Nucleic Acid [2], with Nucleic Acid [3], in the assay on Nucleic Acid [5], with Nucleic Acid [7], in the assay with Nucleic Acid [8] and with Nucleic Acid [9] was Active. Moreover, the result in the assay on Nucleic Acid [10] was Active. This compound had a Kapp in the assay with Nucleic Acid [6] of 7.1 ×10⁴ /M. In addition, the Activity in the assay with Nucleic Acid [1] came out at 50%.

`COC(=O)CNC(=O)[C@H](CC(C)C)NC(=O)CN1CCCNCCCNCCC1` registered a Kapp with Nucleic Acid [6] of 4 ×10⁴ /M. Moreover, the Activity in the assay on Nucleic Acid [1] stood at 50%.

Consider `COC(=O)[C@H](Cc1c[nH]c2ccccc12)NC(=O)[C@@H](N)CC(C)C`, for which, in the assay with Nucleic Acid [1], the outcome was inactive.

For the compound `COC(=O)[C@H](CCCCNC(=O)OCC1c2ccccc2-c2ccccc21)NC(=O)[C@@H](N)CC(C)C` (H-Leu-Lys(Fmoc)-OMe), in the assay with Nucleic Acid [1], the outcome was inactive.

With `COC(=O)[C@H](Cc1ccc(O)cc1)NC(=O)[C@H](CC(C)C)NC(=O)CN1CCCNCCCNCCC1`, the Kapp in the assay with Nucleic Acid [6] worked out at 6.4 ×10⁴ /M. Further, the Activity with Nucleic Acid [1] is 50%.

In the assay with Nucleic Acid [6], `COC(=O)CNC(=O)CNC(=O)CN1CCCNCCCNCCC1` gave a Kapp of 4.2 ×10⁴ /M. Further, the Activity in the assay on Nucleic Acid [1] was 50%.
